Results reported in US11944094B1, “Seed germination activator for control of broomrape” (KING FAISAL UNIVERSITY, priority 2023, dated 2024).

System: broomrape
Test: Field experiment: reduction of broomrape biomass by BIP in irrigation water before planting host crops
Format: in vivo, Orobanche
Description: Testing was performed to determine the effect of BIP in different plant species as host crops (faba bean, tomato, and potato), soil type (sand soil and light clay soil), application time (late October and late February), and different climactic regions (Al Behera governate and Al Noubareia), using various concentrations of the substrate (100-500 ppm) to increase the inhibitory effect. […] Thus, BIP, when formulated and administered at 100-500 ppm with the irrigation water is an effective bio agent for controlling broomrape.

## CCCCOC(=O)c1ccccc1C(=O)OCC(C)C [BIP, butylisobutylphthalate]
300 ppm in irrigation water 8-10 days before cultivation, light clay soil for faba beans and potato, sand soil for faba bean, 20th of October
  reduced broomrape biomass: 65%
400 ppm in irrigation water 10 days before planting, sand soil, 15th of February, tomato plants
  reduction in broomrape biomass: 69%
BIP 500 ppm versus 400 ppm
  increase of inhibition effect relative to the activity observed at 400 ppm: ≤ 10%
Faba bean (Misr-3), cultivation October, light clay soil, BIP 300 ppm
  % Reduction Broomrape Biomass: 65.0%
Faba bean (Misr-3), cultivation October, sandy soil, BIP 300 ppm
  % Reduction Broomrape Biomass: 59.8%
Potato (Yarla), cultivation September, light clay soil, BIP 325 ppm
  % Reduction Broomrape Biomass: 62.3%
Tomato (Star Valley), cultivation February, sandy soil, BIP 400 ppm
  % Reduction Broomrape Biomass: 71.8%
Lower concentrations of BIP (100-200 ppm)
  reduction of broomrape: 15%-18%
